Reference: paper PMC7587356, “High-Throughput Screening for Inhibitors of the SARS-CoV-2 Protease Using a FRET-Biosensor” (Molecules, 2020)
Where two headings read alike, the source gives them in different places.

Columns and labels:
[1] = biological target: T1, SARS-CoV-2 3CLpro (Severe acute respiratory syndrome coronavirus 2, UniProt P0DTD1); test: biochemical; assay type: biochemical; conditions: sheet LOPAC_screen_w_protease, primary screen at 5 µM; for inhibition at 5 µM: 4 h
[2] = biological target: T1, SARS-CoV-2 3CLpro; test: biochemical; assay type: biochemical
[3] = EC50 with Triton X-100 / EC50 without Triton X-100, ratio greater than 2 suggests aggregation-based inhibitor
[4] = with 0.01% Triton X-100; mean ± SD of triplicate; 4 h, 30 °C; read-out: A) EC50 with Triton X-100
[5] = without Triton X-100; mean ± SD of triplicate; 4 h, 30 °C; read-out: B) EC50 without Triton X-100
[6] = mean of two replicates, read-out: mean (LOPAC screen with protease)
[7] = replicate 1, read-out: Replicate_1 (LOPAC screen with protease)
[8] = replicate 2, read-out: Replicate_2 (LOPAC screen with protease)

Structure (SMILES) | Ratio (A/B) [2] | EC50 [2, 4] | EC50 [2, 5] | further results
Cc1c(OCC(F)(F)F)ccnc1C[S+]([O-])c1nc2ccccc2[nH]1 (stereo not drawn) [Lansoprazole, reference compound] | 3.9 | – | – | mean (LOPAC screen with protease) ([1]; mean of two replicates): 41.5106; Replicate_1 (LOPAC screen with protease) ([1]; replicate 1): 48.0924; Replicate_2 (LOPAC screen with protease) ([1]; replicate 2): 34.9288; EC50 ([2]; A) EC50 with Triton X-100): 5720 ± 865 nM; EC50 ([2]; B) EC50 without Triton X-100): 1460 ± 398 nM
NC(Cc1cc(O)c(O)cc1O)C(=O)O (racemic) [6-Hydroxy-dl-DOPA, reference compound] | – | 1320 ± 118 nM | 652 ± 259 nM | mean (LOPAC screen with protease) ([1]; mean of two replicates): 66.3118; Replicate_1 (LOPAC screen with protease) ([1]; replicate 1): 69.7112; Replicate_2 (LOPAC screen with protease) ([1]; replicate 2): 62.9123; Ratio (A/B) [2, 3]: 2.0
O=c1oc(Cl)c(Cl)c2ccccc12 [3,4-Dichloroisocoumarin, reference compound] | 1.6 | 8700 ± 2720 nM | 5380 ± 612 nM | inhibition at 5 µM [1, 6]: 30.4%; inhibition at 5 µM [1, 7]: 30.8%; inhibition at 5 µM [1, 8]: 30%
O=C(/C=C/c1ccc(O)c(O)c1)OCCc1ccccc1 [Caffeic acid phenethyl ester, reference compound] | – | > 20000 nM | > 20000 nM | inhibition at 5 µM [1, 6]: 29.6%; inhibition at 5 µM [1, 7]: 30.7%; inhibition at 5 µM [1, 8]: 28.6%
CN(N=O)c1ccc(O)c(O)c1 [Me-3,4-dephostatin, reference compound] | 2.1 | 3780 ± 867 nM | 1820 ± 925 nM | mean (LOPAC screen with protease) ([1]; mean of two replicates): 27.3002; Replicate_1 (LOPAC screen with protease) ([1]; replicate 1): 29.2005; Replicate_2 (LOPAC screen with protease) ([1]; replicate 2): 25.3998
C=CCN1CCc2c(cc(O)c(O)c2Br)C(c2ccccc2)C1 (stereo not drawn) [R(+)-6-Bromo-APB] | – | > 20000 nM | > 20000 nM | –
O=Nc1ccc2oc(=O)ccc2c1 [6-Nitroso-1,2-benzopyrone, reference compound] | 1.6 | 882 ± 110 nM | 559 ± 123 nM | mean (LOPAC screen with protease) ([1]; mean of two replicates): 91.133; Replicate_1 (LOPAC screen with protease) ([1]; replicate 1): 92.4944; Replicate_2 (LOPAC screen with protease) ([1]; replicate 2): 89.7716
CN1CC[C@@]2(C)c3cc(O)ccc3N(C)[C@@H]12 [(−)-Eseroline] | 1.3 | 994 ± 197 nM | 738 ± 201 nM | –
CN1CCc2c(cc(O)c(O)c2Cl)C(c2cccc(Cl)c2)C1 (stereo not drawn) [SKF 83565] | – | > 20000 nM | 6030 ± 3630 nM | –
Cc1ccc(S(=O)(=O)N[C@@H](CCCCN)C(=O)CCl)cc1 [TLCK, Tosyl-L-Lys chloromethyl ketone] | – | 10600 ± 881 nM | > 20000 nM | EC50 ([2]; with 0.01% Triton X-100, read-out: EC50): 10600 nM
CC(=O)[C@]1(O)Cc2c(O)c3c(c(O)c2[C@@H](O[C@H]2C[C@H](N)[C@H](O)[C@H](C)O2)C1)C(=O)c1ccccc1C3=O [Idarubicin] | – | > 20000 nM | > 20000 nM | –
C[N+](C)(C)CCC(=O)c1cccc2ccccc12 [alpha-NETA, 2-(alpha-Naphthoyl)ethyltrimethylammonium] | 0.9 | 227 ± 14 nM | 243 ± 51 nM | –
CC(=O)NCCc1ccc(O)c(O)c1 [N-Acetyldopamine] | 1.8 | 2650 ± 550 nM | 1450 ± 222 nM | –
Oc1ccc(C2CNCCc3c2cc(O)c(O)c3Cl)cc1 (stereo not drawn) [Fenoldopam] | – | > 20000 nM | 7190 ± 6080 nM | –
CC(C)N(CCC(=O)c1ccc2ccccc2c1)Cc1ccccc1 [ZM 39923] | 1.0 | 302 ± 38 nM | 289 ± 55 nM | –
C=CCN1CCc2cccc3c2[C@H]1Cc1ccc(O)c(O)c1-3 [R(−)-N-Allylnorapomorphine] | – | 346 ± 80 nM | 379 ± 83 nM | Ratio (A/B) [2, 3]: 0.9

Structure (SMILES) | Ratio (A/B) [2] | EC50 [2, 4] | EC50 [2, 5] | further results
CC(Cc1ccc(O)c(O)c1)C(C)Cc1ccc(O)c(O)c1 (stereo not drawn) [Nordihydroguaiaretic acid] | 1.3 | 270 ± 58 nM | 214 ± 65 nM | –
O=C(O)Cc1ccc(O)c(O)c1 [DOPAC] | 1.3 | 3090 ± 226 nM | 2460 ± 117 nM | –
NC[C@@H]1O[C@H](C23CC4CC(CC(C4)C2)C3)Cc2c1ccc(O)c2O [A-77636] | 1.6 | – | – | EC50 ([2]; read-out: A) EC50 with Triton X-100): 3790 ± 630 nM; EC50 ([2]; read-out: B) EC50 without Triton X-100): 2340 ± 783 nM
N.S=C(S)N1CCCC1 [APDC] | 0.8 | 1230 ± 64 nM | 1520 ± 697 nM | –
CN1CCc2cc(O)c(O)cc2C(c2ccccc2)C1 (stereo not drawn) [SKF 75670] | – | 17800 ± 8360 nM | > 20000 nM | –
CN=c1nc(-c2ccccc2)n(-c2ccccc2)s1 [SCH-202676] | – | 274 ± 73 nM | 41 ± 8 nM | Ratio (A/B) [2, 3]: 6.7; reduction in levels of inhibition upon addition of 0.01% Triton X-100 ([2]; with vs without 0.01% Triton X-100): > 2 fold
C=CCN1CCc2cc(O)c(O)cc2C(c2ccccc2)C1 (racemic) [N-allyl-(±)-SKF 38393] | – | 3340 ± 805 nM | 1650 ± 462 nM | –
Oc1ccc(Cn2cc[nH]c2=S)cc1 [1-Hbit] | – | 7080 ± 5150 nM | > 20000 nM | –
Oc1cc(O)c2c(c1)O[C@H](c1ccc(O)c(O)c1)[C@@H](O)C2 [(+)-Catechin] | – | > 20000 nM | 11300 ± 6550 nM | –
CN(C)C(=O)/N=N/C(=O)N(C)C [Diamide] | – | 17100 ± 20800 nM | > 20000 nM | –
N=c1c[n+](N2CCOCC2)[n-]o1 [3-Morpholinosydnonimine] | 1.1 | 5660 ± 445 nM | 4970 ± 2380 nM | –
CN1CCc2cc(O)cc3c2[C@H]1Cc1ccc(O)c(O)c1-3 [R(−)-2-Hydroxyapomorphine] | – | 450 ± 78 nM | 420 ± 101 nM | Ratio (A/B) [2, 3]: 1.1
Br.CCCN1CCc2cc(O)cc3c2[C@H]1Cc1ccc(O)c(O)c1-3 [R(−)-2-OH-NPA, R(−)-2,10,11-Trihydroxy-N-propylnoraporphine] | – | 746 ± 91 nM | 715 ± 133 nM | Ratio (A/B) [2, 3]: 1.0
Oc1cc2c(c(Cl)c1O)CCNCC2c1ccccc1 (racemic) [(±)-6-Chloro-PB] | 1.4 | 1440 ± 353 nM | 1020 ± 289 nM | –
CC(C)C[C@H](N)CS [l-Leucinethiol] | 2.2 | 4380 ± 770 nM | 1950 ± 110 nM | –
NC1CCc2cc(O)c(O)cc2C1 (stereo not drawn) [6,7-ADTN] | 1.1 | 2380 ± 257 nM | 2120 ± 727 nM | –
